Measurements taken from publication PMC8174488, “4-Arylthiosemicarbazide derivatives as a new class of tyrosinase inhibitors and anti-Toxoplasma gondii agents” (Journal of Enzyme Inhibition and Medicinal Chemistry, 2021).
Where “and” joins values, the source holds several entries; their conditions need not be identical. Equal values may be shown once. Read-outs that look alike come from different tables or passages of the source.

Columns and labels:
T. gondii RH strain [1] = tested on: T. gondii RH strain; set-up: method as in PMID 30744161, PMID 31022878; settings: 50% inhibition of T. gondii proliferation in vitro; reported previously, listed for comparison; cited from earlier work
Hs27 cell line = assay: Cytotoxicity assay (MTT) on human fibroblast Hs27 cells; format: cell-based
Description: (§1) Cell viability assay was performed according to international standards (ISO 10993–5:2009(E)), using tetrazolium salt (MTT, Sigma-Aldrich) and mouse fibroblasts L929 cells. Culture medium RPMI 1640, without phenol red (Biowest, Nuaille, France) supplemented with 10% FBS, 2 mM L-glutamine (Sigma-Aldrich), 100 I.U./mL penicillin, 100 µg/mL streptomycin were used. Briefly, 1 × 10^4/well of L929 cells were placed in 96-well plates and incubated for 24 h at 37 °C and 10% CO2. Afterwards, the old culture medium was replaced with 100 µL of the compound, drug or inhibitor, diluted in culture medium, and the cells treated for 24 h. Additionally, cells were treated with 0.03–4.0% concentration of DMSO as the solvent (data not shown). Then, 50 µL of 1 mg/mL of MTT solution in RPMI 1640 without phenol red was added to each well and incubated for 2 h at 37 °C and 10% CO2. Next, cell culture medium was aspirated carefully and 150 µL of DMSO was added to each well, and the plates were gently mixed. Then, 25 µL 0.1 M glycine buffer (pH 10.5) (Sigma-Aldrich) was added. The optical density at 570 nm using a multi-mode microplate reader SpectraMax® i3 (Syngen, Taipei City, Taiwan) was recorded. The results were expressed as a percentage of viability compared to untreated cells. All experiments were performed in triplicate. Cytotoxicity assay using human fibroblast Hs27 cells was also performed as described above (included in Supplementary Material).

L929 cells [2] = settings: cited from earlier work
T. gondii RH strain [3] = assay: Antiparasitic assay: T. gondii RH proliferation in Hs27 cells, [3H]uracil incorporation; format: cell-based, Toxoplasma gondii; settings: for IC50: Toxoplasma gondii, HS27; for SR (selectivity ratio): ratio of CC30 (L929) to IC50Tg
L929 cells [4] = assay: Cell viability assay (MTT, ISO 10993-5) on L929 mouse fibroblasts; format: cell-based; settings: 24 h, concentration for 30% inhibition of cell proliferation
Source text: First, we evaluated the cytotoxic effects of 1b–9b, which is necessary prior to measuring anti-Toxoplasma and Tyr inhibition in order to exclude cytotoxic compounds. […] Cytotoxicity was estimated using mouse fibroblast (L929) cells line via MTT assay, according to the international standards ISO 10993–5:2009(E). […] Therefore, the obtained results were expressed as CC30, which was defined as the highest concentration of the compound that causes 30% damage of cells and was considered according to ISO as non-toxic.
The L929 mouse fibroblast (ATTC® CCL-1™, Manassas, VA) was routinely maintained in RPMI 1640 media (R8758, Sigma-Aldrich, Suffolk, UK), supplemented with 10% foetal bovine serum (Foetal Bovine Serum, ATCC® 30–2020™), 100 I.U./mL penicillin and 100 µg/mL streptomycin (Penicillin-Streptomycin Solution ATCC® 30–2300™). Cells were trypsinised (Trypsin-EDTA Solution, 1X ATCC® 30–2101™) twice a week and seeded at a density of 1 × 10^6 per T25 cell culture flask and incubated at 37 °C and 10% CO2 to achieve a confluent monolayer.
as §1

[5] = tested on: T. gondii tachyzoites RH-GFP strain; assay: Influence of compounds during Toxoplasma growth, assay A (compounds present only during penetration); format: cell-based, Toxoplasma gondii; settings: compound at IC50Tg for 3 h during penetration, then 24 h free medium, Hs27 cells, vs untreated cells
[6] = tested on: T. gondii tachyzoites RH-GFP strain; assay: Influence of compounds during Toxoplasma growth, assay B (compounds present 24 h after penetration); format: cell-based, Toxoplasma gondii; settings: 3 h infection without compound, then compound at IC50Tg for 24 h, Hs27 cells, vs untreated cells
Tyr from mushrooms [7] = biological target: T1, Tyr from mushrooms (Agaricus bisporus, UniProt C7FF04); assay: Inhibition of tyrosinase activity assay (screening at 25 µM); format: biochemical, mushroom; settings: for Tyrosinase inhibition: at 25 µM compound, L-tyrosine substrate, 10 U Tyr, 30 min; for inhibition at 25 µM: read-out: Tyrosinase inhibition, at 25 µM compound, L-tyrosine substrate, 10 U Tyr, 30 min
T1 sequence (G1K3P4 entry or part of it): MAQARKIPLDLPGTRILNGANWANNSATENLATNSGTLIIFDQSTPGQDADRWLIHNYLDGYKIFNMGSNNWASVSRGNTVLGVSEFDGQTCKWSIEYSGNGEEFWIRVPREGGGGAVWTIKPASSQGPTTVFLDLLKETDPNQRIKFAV
T1 sequence (C7FF04 1-392): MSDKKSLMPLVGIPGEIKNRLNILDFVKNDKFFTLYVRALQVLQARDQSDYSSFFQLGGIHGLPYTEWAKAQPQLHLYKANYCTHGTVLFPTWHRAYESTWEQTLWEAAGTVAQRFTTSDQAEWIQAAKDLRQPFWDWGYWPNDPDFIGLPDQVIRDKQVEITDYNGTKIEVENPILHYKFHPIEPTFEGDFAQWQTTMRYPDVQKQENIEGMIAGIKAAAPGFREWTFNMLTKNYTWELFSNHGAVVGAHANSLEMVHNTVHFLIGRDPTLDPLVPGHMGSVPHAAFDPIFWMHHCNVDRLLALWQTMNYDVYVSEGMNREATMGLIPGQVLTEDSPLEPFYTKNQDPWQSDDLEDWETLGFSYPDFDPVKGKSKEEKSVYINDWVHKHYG
Description: In our study, we used Tyr from mushrooms (T3824, Sigma) for all experiments. All compound dilutions, L-tyrosine a Tyr substrate, and Tyr were prepared in 50 mM phosphate buffer (pH 6.5). […] 100% Tyr activity we used for the sample without addition compound/inhibitor. […] The average results from three experiments are shown.

Tyr from mushrooms [8] = biological target: T1, Tyr from mushrooms; assay: Kinetic analysis of the inhibition of tyrosinase (Lineweaver-Burk, Dixon, [L-tyrosine]/V vs [I] plots); format: biochemical, mushroom; settings: for Ki: Dixon plots; for character of inhibition: Lineweaver–Burk plots; for IC50: plots of [L-tyrosine]/V vs [I]
Description: Therefore, these compounds were subsequently subjected to detailed kinetic studies to evaluate inhibition parameters. […] Dixon plots (Figure 7) were used in evaluating the KI values, while the plots of [L-tyrosine]/V vs. [I] (Figure 8), were employed to determine IC50Tyr[50]. [I] represents the concentration of the inhibitor. Rates were monitored spectrophotometrically by detecting changes in absorbance at 492 nm.
Solutions containing 80 µL of 0.625, 1.25, or 2.5 mM L-tyrosine and 50 µL of 20, 100, or 200 µM inhibitor were added to a 96-well plate. Then, solution containing 70 µL of Tyr (10 U) was added and the initial rate of dopachrome formation was determined through detecting the increase in absorbance at the wavelength of 492 nm (Δ492/min). […] In order to determine the inhibition constants KI the Dixon plots were constructed, whereas the plots of [L-tyrosine]/V vs. inhibitor concentration [I] were used for IC50Tyr evaluation. The results from three experiments are shown.

Toxoplasma gondii = Toxoplasma gondii proliferation; cited from earlier work

melting point [°C]	SMILES	IC50 (T. gondii RH strain [1]) [µM]	CC30 (Hs27 cell line) [µM]	CC30 (L929 cells [2]) [µM]	IC50 (T. gondii RH strain [3]) [µM]	SR (selectivity ratio) (T. gondii RH strain [3])	CC30 (Hs27 cell line; Hs27 cell line, MTT) [µM]	CC30 (L929 cells [4])	also measured
–	Cc1nc[nH]c1C(=O)NNC(=S)Nc1cccc([N+](=O)[O-])c1 [Compound 1a]	46.1	479.22	440.95	–	–	–	–	–
134 to 136	O=C(NNC(=S)Nc1cccc([N+](=O)[O-])c1)C1CCCC1 [Compound 1b, 1-Cyclopentanoyl-4–(3-nitrophenyl)thiosemicarbazide]	–	–	–	180	3.43	603.98	616.52 µM	–
–	Cc1nc[nH]c1C(=O)NNC(=S)Nc1ccc([N+](=O)[O-])cc1 [Compound 2a]	67.5	697.67	–	–	–	–	–	number of infected cells (infection index) [5]: significant reduction; number of tachyzoites per PV [5]: significant reduction; number of tachyzoites per PV [6]: significant reduction; percentage of infected cells [6]: not observable; Tyrosinase inhibition (Tyr from mushrooms [7]): 46.4 ± 3.6%; Ki (Tyr from mushrooms [8]): 9.35 µM; character of inhibition (Tyr from mushrooms [8]): mixed character of inhibition; IC50 (Tyr from mushrooms [8]): 38.3 µM
–	Cc1nc[nH]c1C(=O)NNC(=S)Nc1ccccc1Cl [Compound 3a]	115	502.21	462.12	–	–	–	–	–
178 to 180	O=C(NNC(=S)Nc1ccccc1Cl)C1CCCC1 [Compound 3b, 4–(2-Chlorophenyl)-1-cyclopentanoylthiosemicarbazide]	–	–	–	368	1.51	512.31	554.73 µM	–
–	Cc1nc[nH]c1C(=O)NNC(=S)Nc1ccccc1Br [Compound 4a]	78.1	728.41	579.61	–	–	–	–	–
179 to 181	O=C(NNC(=S)Nc1ccccc1Br)C1CCCC1 [Compound 4b, 4–(2-Bromophenyl)-1-cyclopentanoylthiosemicarbazide]	–	–	–	218	3.70	> 1000	806.60 µM	–
–	Cc1nc[nH]c1C(=O)NNC(=S)Nc1ccccc1I [Compound 5a]	50.6	278.72	253.17	–	–	–	–	–
182 to 184	O=C(NNC(=S)Nc1ccccc1I)C1CCCC1 [Compound 5b, 1-Cyclopentanoyl-4–(2-iodophenyl)thiosemicarbazide]	–	–	–	128	2.60	369.69	333.25 µM	–
–	Cc1nc[nH]c1C(=O)NNC(=S)Nc1cccc(I)c1 [Compound 6a]	25.7	209.45	–	–	–	–	–	number of infected cells (infection index) [5]: significant reduction; number of tachyzoites per PV [5]: significant reduction; number of tachyzoites per PV [6]: significant reduction; percentage of infected cells [6]: not observable; Tyrosinase inhibition (Tyr from mushrooms [7]): 48.9 ± 3.0%; Ki (Tyr from mushrooms [8]): 12.4 µM; character of inhibition (Tyr from mushrooms [8]): mixed character of inhibition; IC50 (Tyr from mushrooms [8]): 37.4 µM
–	COc1ccccc1NC(=S)NNC(=O)c1[nH]cnc1C [Compound 7a]	108	498.12	452.06	–	–	–	–	–
176 to 178	COc1ccccc1NC(=S)NNC(=O)C1CCCC1 [Compound 7b, 1-Cyclopentanoyl-4–(2-methoxyphenyl)thiosemicarbazide]	–	–	–	327	2.71	> 1000	886.29 µM	–
–	Cc1ccc(NC(=S)NNC(=O)c2[nH]cnc2C)cc1 [Compound 8a]	199	421.89	361.73	–	–	–	–	–
175 to 177	Cc1ccc(NC(=S)NNC(=O)C2CCCC2)cc1 [Compound 8b, 1-Cyclopentanoyl-4–(4-methylphenyl)thiosemicarbazide]	–	–	–	181	2.55	445.10	463.37 µM	–
–	Cc1nc[nH]c1C(=O)NNC(=S)Nc1cc(F)ccc1F [Compound 9a]	172	612.48	509.11	–	–	–	–	–
178 to 180	O=C(NNC(=S)Nc1cc(F)ccc1F)C1CCCC1 [Compound 9b, 1-Cyclopentanoyl-4–(2,5-difluorophenyl)thiosemicarbazide]	–	–	–	321	2.68	> 1000	860.66 µM	–
–	O=c1cc(CO)occ1O [Kojic acid (KA), Kojic acid, reference compound]	–	–	–	501	–	> 2500	1558.28 µM	number of tachyzoites per PV [5]: significant reduction; number of tachyzoites per PV [6]: significant reduction; percentage of infected cells [6]: not observable; CC30 (L929 cells [4]; listed as KA): 1558.0 µM
–	CCc1nc(N)nc(N)c1-c1ccc(Cl)cc1 [Pyrimethamine (PYR), Pyrimethamine, reference compound]	–	–	–	11.5	15.85	–	181.97 µM	–
–	Nc1ccc(S(=O)(=O)Nc2ncccn2)cc1 [sulfadiazine]	–	–	–	–	–	–	–	IC50 (Toxoplasma gondii): ~8.5 mM

SMILES	melting point [°C]	IC50 (T. gondii RH strain [1]) [µM]	CC30 (Hs27 cell line) [µM]	CC30 (L929 cells [2]) [µM]	IC50 (T. gondii RH strain [3]) [µM]	SR (selectivity ratio) (T. gondii RH strain [3])	CC30 (Hs27 cell line; Hs27 cell line, MTT) [µM]	CC30 (L929 cells [4])	also measured
O=C(NNC(=S)Nc1ccc([N+](=O)[O-])cc1)C1CCCC1 [Compound 2b, 1-Cyclopentanoyl-4–(4-nitrophenyl)thiosemicarbazide]	170 to 172	–	–	–	144	2.63	405.09	378.39 µM and 378.4 µM	number of infected cells (infection index) [5]: significant reduction; number of tachyzoites per PV [5]: significant reduction; number of tachyzoites per PV [6]: significant reduction; percentage of infected cells [6]: not observable; inhibition at 25 µM (Tyr from mushrooms [7]): 45.6 ± 2.8%; character of inhibition (Tyr from mushrooms [8]): mixed character of inhibition
O=C(NNC(=S)Nc1cccc(I)c1)C1CCCC1 [Compound 6b, 1-Cyclopentanoyl-4–(3-iodophenyl)thiosemicarbazide]	173 to 175	–	–	–	54.5	2.16	135.87	117.68 µM	number of infected cells (infection index) [5]: significant reduction; number of tachyzoites per PV [5]: significant reduction; number of tachyzoites per PV [6]: significant reduction; percentage of infected cells [6]: not observable; inhibition at 25 µM (Tyr from mushrooms [7]): 43.9 ± 3.4%; character of inhibition (Tyr from mushrooms [8]): mixed character of inhibition
